Molecular target: Mitogen-activated protein kinase 1 (Homo sapiens, UniProt P28482)
Test: Binding affinity to ERK2 (unknown origin)

Mitogen-activated protein kinase 1, sequence (P28482 whole entry): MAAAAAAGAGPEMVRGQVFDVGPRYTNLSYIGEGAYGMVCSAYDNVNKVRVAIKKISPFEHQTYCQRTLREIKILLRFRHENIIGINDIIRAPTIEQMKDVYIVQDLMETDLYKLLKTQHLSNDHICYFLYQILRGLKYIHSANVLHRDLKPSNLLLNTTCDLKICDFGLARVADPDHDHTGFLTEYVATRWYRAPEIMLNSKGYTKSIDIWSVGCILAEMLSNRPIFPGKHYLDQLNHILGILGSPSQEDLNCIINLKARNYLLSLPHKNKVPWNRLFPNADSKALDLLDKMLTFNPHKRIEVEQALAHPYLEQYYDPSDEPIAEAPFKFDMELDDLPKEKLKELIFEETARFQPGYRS

COc1ccc(/C=C2\SC(=O)N(CCN)C2=O)cc1
Kd: 5 µM

Source: ChEMBL document CHEMBL3217493, “Approaches to discover non-ATP site kinase inhibitors” (Medchemcomm, 2013)
